Article PMC6274350, “Design, Synthesis, and Cytotoxicity of 5-Fluoro-2-methyl-6-(4-aryl-piperazin-1-yl) Benzoxazoles” (Molecules, 2016)

Assays:
[1] = tested on: A-549 lung carcinoma cells; test: CellTiter-Glo luminescent cell viability (cytotoxicity) assay on lung cancer cells; assay type: cell-based, human; conditions: for Lung cancer cells killed: A-549; for Lung cancer cells killed / viability at 10 µM: 10 µM; for viability at 0.1 µM / viability at 1 µM / viability at 10 µM / viability at 50 µM / viability at 100 µM: Homo sapiens, A549, Lung cancer cells (A-549), 24 h, vs DMSO vehicle
Method: (§1) The cytotoxicity of prepared benzoxazoles (7a–j) and intermediates (6a–j and 9) were measured by applying the CellTiter-Glo® luminescent cell proliferation assay (G755A, Promega, Madison, WI, USA). This method permits the determination of viable cells numbers in the culture based on quantitation of the ATP present, which denotes the presence of metabolically active cells. In vitro cytotoxicity analysis was overall performed following the protocol as described in “Guidance Document on Using in Vitro Data to Estimate in Vivo Starting Doses for Acute Toxicity Based on Recommendations” [18]. Human A-549 cells are human lung cancer epithelial cells, which were chosen as the tumor model, whereas the HepaRG™ cell line is a classic hepatic cell line that retains many characteristics of primary human hepatocytes. HepaRG™ cells are terminally differentiated.
(§2) Human cell cultures: Hepatocytes (HepaRG^TM cells) were obtained from Life Technologies, and were cultivated in William’s E Medium (Gibco, Life Technologies, Waltham, MA, USA) and supplemented with 1x GlutaMAX™ plus 1x HepaRG^TM General Purpose Medium Supplement in 25-cm^2 or 75-cm^2 flasks (TPP, Trasadingen, Switzerland) at 37 °C and 5% CO2. Lung cancer epithelial cells A-549 were propagated in Epilife Medium (Gibco, Life Technologies; MEPICF) and combined with CaCl2 and 1x-growth-supplement containing penicillin and streptomycin (Gibco, Life Technologies). For sub-culturing, cells were split at a ratio of 1:4 to 1:8. For cryopreservation, cells were frozen in 10% DMSO in liquid nitrogen.
(§3) Human cytotoxicity assay: Human hepatocytes or human lung carcinoma cells were seeded into sterile black clear-bottomed polystyrene Corning® CellBind® 96-well plates (Munich, Germany) at a density of 20,000 cells/well after calculating cell numbers from trypsinized samples in a classical Neubauer Improved hemocytometer (VWR, Munich, Germany). The cells were grown for 24 h at 37 °C in a 5% CO2 atmosphere in Epilife medium (keratinocytes) or William′s E medium (hepatocytes). After a 24-h recovery period, media were removed from the wells by aspiration. The cells were then immediately exposed to the respective test compounds or reference antibiotics (prepared in advance in 100 µL of the same media) for 24 h 37 °C with 5% CO2. The concentration tested ranged from 0.1 µM to 500 µM (0.1 µM, 1 µM, 10 µM, 50 µM, 100 µM, 250 µM, and 500 µM) and was formulated as a 100× concentrated stock each, resulting in a final constant DMSO concentration of 1% per 100-µL sample volume. Test series were each performed in triplicate, and additionally included a vehicle reference (DMSO only) plus another internal control for evaluating overall assay performance. Additionally, cells were visually examined under a light microscope for any morphological abnormalities relative to the untreated cells. Subsequently, cell viability, as an indicator of potential cytotoxicity, was measured by applying the CellTiter-Glo® luminescent cell proliferation assay (G755A, Promega, Madison, WI, USA). This method permits the determination of the number of viable cells in culture based on quantitation of the ATP present, which denotes the presence of metabolically active cells. To this end, 100 µL (equal to the volume of culture medium) of the kit-provided CellTiter-Glo® reagent (reconstituted by transferring the thawed CellTiter-Glo® buffer to the lyophilized enzyme and substrate mixture) was directly added to each well with a repetitive dispensing pipette. The contents were then mixed for 2 min at room temperature on an orbital minishaker (IKA® MS3 digital, Staufen, Germany) at 450 rpm to induce efficient cell lysis, and then further incubated for 10 min at room temperature for stabilization of the resultant luminescent signal. […]

[2] = CellTiter-Glo luminescent cell viability (cytotoxicity) assay on hepatocytes; assay type: cell-based, human; conditions: human, Liver cells, hepatocytes (HepaRG), 24 h, vs DMSO vehicle
Method: as §1, §2, §3

[3] = Visible solubility / precipitation of test compounds in cell-culture media; assay type: physicochemical; conditions: 50 µM; no conclusion on cytotoxicity possible
Method: Since the majority of test compound solutions with concentrations above 50 µM precipitated in cell-culture media, we performed cytotoxicity assays for healthy and cancer cells at 50 µM.

Row | SMILES | melting point [°C] | Lung cancer cells killed [1] | viability at 0.1 µM [1] [%] | viability at 1 µM [1] [%] | viability at 10 µM [1] [%] | viability at 50 µM [1] [%] | viability at 100 µM [1] [%] | viability at 24 h, 0.1 µM [2] [%] | viability at 24 h, 1 µM [2] [%] | viability at 24 h, 10 µM [2] [%] | viability at 24 h, 50 µM [2] [%] | viability at 24 h, 100 µM [2] [%] | Precipitation in cell-culture media [3]
1 | O=[N+]([O-])c1cc(F)c(Cl)cc1O | 82 to 83 |  |  |  |  |  |  |  |  |  |  |  | 
2 | O=[N+]([O-])c1cc(F)c(N2CCN(c3ccccc3)CC2)cc1O [Compound 6a, 4-Fluoro-2-nitro-5-(4-phenyl-piperazin-1-yl)-phenol] | 197 to 198 | ~ 40% | 97 | 104 | 64 | 61 | 58 | 86 | 97 | 112 | 90 | 76 | 
3 | Cc1ccc(N2CCN(c3cc(O)c([N+](=O)[O-])cc3F)CC2)cc1 [Compound 6b, 4-Fluoro-2-nitro-5-(4-p-tolyl-piperazin-1-yl)-phenol] | 178 to 179 |  | 99 | 100 | 68 | 65 |  | 107 | 123 | 120 | 97 | 96 | 
4 | O=[N+]([O-])c1cc(F)c(N2CCN(c3ccc(O)cc3)CC2)cc1O [Compound 6c, 4-Fluoro-5-[4-(4-hydroxy-phenyl)-piperazin-1-yl]-2-nitro-phenol] | 218 to 219 |  | 104 | 103 | 102 | 94 |  | 95 | 101 | 110 | 101 | 89 | 
5 | COc1ccc(N2CCN(c3cc(O)c([N+](=O)[O-])cc3F)CC2)cc1 [Compound 6e, 4-Fluoro-5-[4-(4-methoxy-phenyl)-piperazin-1-yl]-2-nitro-phenol] | 202 to 204 |  | 101 | 104 | 96 | 71 |  | 107 | 110 | 104 | 74 | 79 | 
6 | O=[N+]([O-])c1cc(F)c(N2CCN(c3ccccc3O)CC2)cc1O [Compound 6f, 4-Fluoro-5-[4-(2-hydroxy-phenyl)-piperazin-1-yl]-2-nitro-phenol] | 176 to 178 |  | 97 | 100 | 93 | 60 | 46 | 105 | 104 | 110 | 76 |  | 
7 | O=[N+]([O-])c1cc(F)c(N2CCN(c3ccccc3F)CC2)cc1O [Compound 6g, 4-Fluoro-5-[4-(2-fluoro-phenyl)-piperazin-1-yl]-2-nitro-phenol] | 180 to 181 | ~ 40% | 96 | 96 | 62 | 51 | 42 | 110 | 109 | 112 | 87 |  | 
8 | O=[N+]([O-])c1cc(F)c(N2CCN(c3cccc(O)c3)CC2)cc1O [Compound 6h, 4-Fluoro-5-[4-(3-hydroxy-phenyl)-piperazin-1-yl]-2-nitro-phenol] | 207 to 208 |  | 106 | 106 | 105 | 87 |  | 117 | 109 | 108 | 83 | 58 | 
9 | COc1cccc(N2CCN(c3cc(O)c([N+](=O)[O-])cc3F)CC2)c1 [Compound 6i, 4-Fluoro-5-[4-(3-methoxy-phenyl)-piperazin-1-yl]-2-nitro-phenol] | 148 to 149 |  | 95 | 93 | 96 | 69 |  | 79 | 95 | 99 |  |  | precipitation problem
10 | O=[N+]([O-])c1cc(F)c(N2CCN(c3ccc(Cl)c(Cl)c3)CC2)cc1O [Compound 6j, 5-[4-(3,4-Dichloro-phenyl)-piperazin-1-yl]-4-fluoro-2-nitro-phenol] | 211 to 213 |  | 98 | 94 | 65 | 62 |  | 119 | 115 | 81 | 102 | 108 | 
11 | Cc1nc2cc(F)c(N3CCN(c4ccccc4)CC3)cc2o1 [Compound 7a, 5-Fluoro-2-methyl-6-(4-phenylpiperazin-1-yl)-benzo[d]oxazole] | 153 to 154 |  | 101 | 96 | 90 | 60 |  | 101 | 97 | 94 |  |  | precipitation problem
12 | Cc1nc2cc(F)c(N3CCN(c4ccc(O)cc4)CC3)cc2o1 [Compound 7c, 4-[4-(5-Fluoro-2-methyl-benzooxazol-6-yl)-piperazin-1-yl]-phenol] | 188 to 191 |  | 92 | 97 | 101 | 90 | 83 | 98 | 107 | 101 | 93 |  | 
13 | Cc1nc2cc(F)c(N3CCN(c4ccc(F)cc4)CC3)cc2o1 [Compound 7d, 5-Fluoro-6-[4-(4-fluoro-phenyl)-piperazin-1-yl]-2-methyl-benzooxazole] | 148 to 150 |  | 98 | 98 | 87 | 87 | 82 | 91 | 94 | 85 |  |  | precipitation problem
14 | COc1ccc(N2CCN(c3cc4oc(C)nc4cc3F)CC2)cc1 [Compound 7e, 5-Fluoro-6-[4-(4-methoxy-phenyl)-piperazin-1-yl]-2-methyl-benzooxazole] | 156 to 157 |  | 93 | 92 | 75 | 74 | 68 | 107 | 108 | 91 | 71 |  | 
